This series is described as follows: solvent given as SMILES.
The mark [1] stands for this setting: in CCCCCCCCC=CCCCCCCCC(=O)OCC(COC(=O)CCCCCCCC=CCCCCCCCC)OC(=O)CCCCCCCC=CCCCCCCCC

For the compound `CCCCCCCCCC`, the “solvation free energy, 298 K” value is, setting by setting: (in CCC(C)(C)OC) -6.77 kcal/mol; (in CCC(C)=O) -6.01 kcal/mol; (in CCCCCC) -6.85 kcal/mol; (in CCCCCCCCCCCCCCCC) -6.34 kcal/mol; (in CCO) -5.35 kcal/mol; (in CCOC(=O)c1ccccc1C(=O)OCC) -5.13 kcal/mol. Besides, the “solvation free energy, 298 K” value is -4.92 kcal/mol (in CN1CCCC1=O); -4.94 kcal/mol (in CN(C)C=O); -4.75 kcal/mol (in COCCO); -6.68 kcal/mol (in Cc1ccc(C)cc1); -3.99 kcal/mol (in N#CCCCCC#N); 3.18 kcal/mol (in O). In addition, the “solvation free energy, 298 K” value (in O=CN1CCOCC1) is -4.15 kcal/mol; the “solvation free energy, 298 K” value (in OCCO) was -2.19 kcal/mol; the “solvation free energy, 298 K” value (in OCCOCCO) is -3.2 kcal/mol; the “solvation free energy, 298 K” value (in OCCOCCOCCO) is -3.33 kcal/mol; the “solvation free energy, 298 K” value (in OCCOCCOCCOCCO) was -3.61 kcal/mol.

For the compound `CCN(CC)CC`, the “solvation free energy, 298 K” value is, setting by setting: (in Brc1ccccc1) -4.47 kcal/mol; (in C1CCOC1) -4.59 kcal/mol; (in C1COCCO1) -4.06 kcal/mol; (in CC1COC(=O)O1) -2.89 kcal/mol; (in CC#N) -3.66 kcal/mol; (in CC(=O)c1ccccc1) -3.93 kcal/mol. Besides, the “solvation free energy, 298 K” value was -4.38 kcal/mol (in CC(C)(C)O); -4.05 kcal/mol (in CC(C)=O); -4.88 kcal/mol (in CC(C)CCO); -4.55 kcal/mol (in CC(C)O); -4.63 kcal/mol (in CC(Cl)(Cl)Cl); -4.03 kcal/mol (in CCC#N). The “solvation free energy, 298 K” value is -4.16 kcal/mol (in CCC(C)=O); -4.82 kcal/mol (in CCC(C)O); -4.49 kcal/mol (in CCCCCC); -4.47 kcal/mol (in CCCCCCC); -3.99 kcal/mol (in CCCCCCCCCCCCCCCC); -4.97 kcal/mol (in CCCCCO). Further, the “solvation free energy, 298 K” value (in CCCCCl) was -4.57 kcal/mol; the “solvation free energy, 298 K” value (in CCCCO) was -4.85 kcal/mol; the “solvation free energy, 298 K” value (in CCCO) is -4.82 kcal/mol; the “solvation free energy, 298 K” value (in CCO) was -4.87 kcal/mol; the “solvation free energy, 298 K” value (in CCOC(=O)c1ccccc1) is -4.06 kcal/mol; the “solvation free energy, 298 K” value (in CCOC(C)=O) was -4.23 kcal/mol. Besides, the “solvation free energy, 298 K” value is -4.45 kcal/mol (in CCOCC); -3.57 kcal/mol (in CN(C)C=O); -5.24 kcal/mol (in CO); -4.52 kcal/mol (in Cc1ccc(C)cc1); -4.66 kcal/mol (in Cc1ccccc1); -4.29 kcal/mol (in ClC1CCCCC1). In addition, the “solvation free energy, 298 K” value is, setting by setting: (in ClC(Cl)(Cl)Cl) -4.82 kcal/mol; (in ClC(Cl)C(Cl)Cl) -5.86 kcal/mol; (in ClC(Cl)Cl) -5.61 kcal/mol; (in ClCCCl) -4.38 kcal/mol; (in ClCCl) -4.98 kcal/mol; (in Clc1ccccc1) -4.56 kcal/mol. Further, the “solvation free energy, 298 K” value by setting is: (in Ic1ccccc1) -4.33 kcal/mol; (in N#Cc1ccccc1) -4.05 kcal/mol; (in O) -3.22 kcal/mol; (in O=C1CCCCC1) -4.11 kcal/mol; (in c1ccccc1) -4.6 kcal/mol.

On to `CC1=CCC(C(C)C)=CC1`, for which the “solvation free energy, 298 K” value (in O) was -0.03 kcal/mol.

Regarding `Cc1c(Cl)c(Cl)c(Cl)c(Cl)c1Cl`, the “solvation free energy, 298 K” value was -9.88 kcal/mol under setting [1] and -2.02 kcal/mol (in O).

Turning to `CC1=CCC(C(C)C)C=C1` (stereo unspecified), under “in O”, the “solvation free energy, 298 K” value is 0.2 kcal/mol.

Take `CCCOC(C)=O`: the “solvation free energy, 298 K” value (in CC(=O)N(C)C) is -4.72 kcal/mol; the “solvation free energy, 298 K” value (in CC(C)CCCC(C)CCCC(C)CCCCC(C)CCCC(C)CCCC(C)C) is -3.84 kcal/mol; the “solvation free energy, 298 K” value (in CCCCC(CC)COC(=O)CCCCC(=O)OCC(CC)CCCC) was -4.3 kcal/mol; the “solvation free energy, 298 K” value (in CCCCCC) is -4.03 kcal/mol; the “solvation free energy, 298 K” value (in CCCCCCC) is -4.02 kcal/mol; the “solvation free energy, 298 K” value (in CCCCCCCC) was -4.02 kcal/mol. The “solvation free energy, 298 K” value under setting [1] is -4.35 kcal/mol; the “solvation free energy, 298 K” value (in CCCCCCCCCC) was -3.96 kcal/mol; the “solvation free energy, 298 K” value (in CCCCCCCCCCCCCCCC) was -3.9 kcal/mol; the “solvation free energy, 298 K” value (in CCCCCCCCO) is -4.33 kcal/mol; the “solvation free energy, 298 K” value (in CCCCCO) was -4.31 kcal/mol; the “solvation free energy, 298 K” value (in CCCCN(C=O)CCCC) was -4.56 kcal/mol. Besides, the “solvation free energy, 298 K” value reads like this: (in CCOCCO) -4.71 kcal/mol; (in CN1CCCC1=O) -4.62 kcal/mol; (in CN1CCCCC1=O) -4.72 kcal/mol; (in CNC(C)=O) -4.54 kcal/mol; (in CO) -4.82 kcal/mol; (in NC=O) -3.72 kcal/mol. The “solvation free energy, 298 K” value reads like this: (in O) -2.8 kcal/mol; (in O=CN1CCOCC1) -4.42 kcal/mol; (in [2H]O[2H]) -2.84 kcal/mol.

Regarding `O=C(O)c1ccc(CO)cc1`, the “solvation free energy, 298 K” value was -8.43 kcal/mol (in C=CCCCCCCCCCCCCCC) and -13.3 kcal/mol (in O).

With `CN(C)CC=C(c1ccc(Br)cc1)c1cccnc1`, the “solvation free energy, 298 K” value (in O) is -11.9 kcal/mol.

On to `CN1CCOCC1`, for which the “solvation free energy, 298 K” value (in O) was -6.32 kcal/mol.

For `C=CCC=C`, the “solvation free energy, 298 K” value by setting is: (in CN(C)C=O) -2.62 kcal/mol; (in O) 0.94 kcal/mol.

With `C=C1CCC2C1C1C(C(C)C)CCC21C` (stereo unspecified), the “solvation free energy, 298 K” value (in O) came out at 1.19 kcal/mol.

With `Nc1ccccc1`, the “solvation free energy, 298 K” value was -7.84 kcal/mol (in CC(C)=O); -5.2 kcal/mol (in CC(C)CC(C)(C)C); -5.43 kcal/mol (in CCCCCC); -5.38 kcal/mol (in CCCCCCC); -4.84 kcal/mol (in CCCCCCCC); -5.36 kcal/mol (in CCCCCCCCCCCCCCCC). Also, the “solvation free energy, 298 K” value by setting is: (in CCCCCl) -6.67 kcal/mol; (in CCOC(C)=O) -7.49 kcal/mol; (in O) -5.77 kcal/mol.

In the case of `CCN`, the “solvation free energy, 298 K” value runs as follows: (in CCCCCC) -2.29 kcal/mol; (in CCCCCCC) -2.09 kcal/mol; (in CCCCCCCC) -2.05 kcal/mol; (in CCCCCCCCCC) -1.93 kcal/mol; (in CCCCCCCCCCCCCCCC) -2.22 kcal/mol; (in O) -4.5 kcal/mol.

In the case of `CCCC1CCCCC1`, the “solvation free energy, 298 K” value is, setting by setting: (in CN1CCCC1=O) -4.57 kcal/mol; (in NC=O) -1.91 kcal/mol; (in O) 1.8 kcal/mol.

For `OC1CCCCCCCCCCC1`, under “in O”, the “solvation free energy, 298 K” value is -5.35 kcal/mol.

As to `CCC(C)(C)CC`, for the setting “in C=CCCCCCCCCCCCCCC”, the “solvation free energy, 298 K” value was -3.89 kcal/mol.

Regarding `C=CC#N`, where the note is “in O”, the “solvation free energy, 298 K” value is -3.34 kcal/mol.

For the compound `Nc1ccc(S(N)(=O)=O)cc1`, the “solvation free energy, 298 K” value (in O) was -14.8 kcal/mol.

With `CCCCCCCCCCCCCN`, the “solvation free energy, 298 K” value (in O) was -3.2 kcal/mol.

As to `c1ccc2ncccc2c1`, the “solvation free energy, 298 K” value was -7.14 kcal/mol (in CC(C)CC(C)(C)C) and -5.72 kcal/mol (in O).

`CCCCCCCCO`: the “solvation free energy, 298 K” value was -6.52 kcal/mol (in CC(C)CC(C)(C)C); -8.2 kcal/mol (in CCC(C)=O); -6.38 kcal/mol (in CCCCCCC); -6.17 kcal/mol (in CCCCCCCCCCCCCCCC); -8.45 kcal/mol (in CCCCCCCCCO); -8.58 kcal/mol (in CCCCCCO). The “solvation free energy, 298 K” value (in CCCCCl) is -7.22 kcal/mol; the “solvation free energy, 298 K” value (in CO) is -8.03 kcal/mol; the “solvation free energy, 298 K” value (in NC=O) was -6.49 kcal/mol; the “solvation free energy, 298 K” value (in O) was -4.07 kcal/mol.

With `CN1C2CCC1CC(OC(=O)C(CO)c1ccccc1)C2` (stereo unspecified), the “solvation free energy, 298 K” value (in CCO) is -18 kcal/mol.

Source of the values: the CombiSolv-Exp solvation set (Vermeire and Green 2021).
